# Experimental data from patent publication US20230295152A1 (SENDA BIOSCIENCES, INC., priority 2019, published 2023).
# Read-outs that look alike come from different tables or passages of the source.
# What was measured:
# AHR = target: T1, AHR (Homo sapiens, UniProt P35869); test: DRE-Luciferase Reporter Assay, HepG2 AhR-Lucia reporter cells; type: cell-based; details: with AHR activating ligand at EC50, read-out: HepG2-Luc IC50
# T1 construct: other cell line with a DRE-luciferase reporter stably transfected; endogenous in cells; host or cells: HepG2 AhR-Lucia reporter cells
# T1 sequence (P35869 11-848): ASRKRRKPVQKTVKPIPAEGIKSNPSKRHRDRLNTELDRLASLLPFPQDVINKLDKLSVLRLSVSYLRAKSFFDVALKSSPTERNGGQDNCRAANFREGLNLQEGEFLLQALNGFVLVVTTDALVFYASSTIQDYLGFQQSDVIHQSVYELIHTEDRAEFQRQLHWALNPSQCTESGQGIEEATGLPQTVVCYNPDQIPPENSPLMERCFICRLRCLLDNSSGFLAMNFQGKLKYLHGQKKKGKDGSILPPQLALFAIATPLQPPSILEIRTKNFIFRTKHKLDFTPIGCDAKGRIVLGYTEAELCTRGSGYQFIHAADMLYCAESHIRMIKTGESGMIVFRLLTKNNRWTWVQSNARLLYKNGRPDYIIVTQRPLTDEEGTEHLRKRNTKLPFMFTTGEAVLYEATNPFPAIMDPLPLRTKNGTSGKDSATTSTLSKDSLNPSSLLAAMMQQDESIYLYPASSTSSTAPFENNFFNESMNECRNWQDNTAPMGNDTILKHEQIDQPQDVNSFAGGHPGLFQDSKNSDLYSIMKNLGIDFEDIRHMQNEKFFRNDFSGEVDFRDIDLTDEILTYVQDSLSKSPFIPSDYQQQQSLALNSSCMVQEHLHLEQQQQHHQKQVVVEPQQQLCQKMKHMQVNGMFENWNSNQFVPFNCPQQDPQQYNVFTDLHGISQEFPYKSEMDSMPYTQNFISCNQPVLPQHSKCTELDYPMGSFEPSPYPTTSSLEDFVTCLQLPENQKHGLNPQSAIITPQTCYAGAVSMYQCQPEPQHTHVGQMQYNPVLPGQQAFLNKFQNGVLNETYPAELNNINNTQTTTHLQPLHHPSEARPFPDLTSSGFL
# Method in brief: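 DRE-luciferase reporter cells (e.g. HepG2 AhR-Lucia, 20000 cells) treated with antagonist log dilutions from 100 uM, then an AHR agonist (e.g. TCDD, kynurenine, ITE, FICZ) at its EC50 added after 1 hr. Secreted luciferase measured after 24 or 48 h (QUANTI-Luc); IC50 = concentration halving luciferase activity.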
# [1] = Solubility Determination Assay in PBS pH 1.6 and pH 7.4; type: physicochemical; details: PBS buffer, aqueous buffer, kinetic from dmso stock
# Method in brief: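 Compounds from 10 mM DMSO stock diluted into PBS pH 1.6 or pH 7.4 (15 μL into 485 μL), stirred 2 hours, then filtered. Filtrate quantified by LC-MS/MS against a standard of known concentration with internal standard; single determination.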
# [2] = PBS pH 1.6, 25° C., read-out: Aq. Solubility at pH = 1.6
# [3] = PBS pH 7.4, 25° C., read-out: Aq. Solubility at pH = 7.4
SMILES,IC50 (AHR),"solubility at 2 h [1, 2]","solubility at 2 h [1, 3]"
"O=c1c2cc(-c3ccc(OC(F)(F)F)cc3)nc(-c3cccnc3)c2ncn1C[C@H](O)C(F)(F)F [Compound 124, (S)-8-(pyridin-3-yl)-3-(3,3,3-trifluoro-2-hydroxypropyl)-6-(4-(trifluoromethoxy)phenyl)pyrido[3,4-d]pyrimidin-4(3H)-one]",< 100 nM,≥ 1 µM,< 0.1 µM
"O=c1c2cc(-c3ccc(Cl)cc3)nc(-c3cccnc3)c2ncn1[C@H]1COC[C@@H]1O [Compound 125, 6-(4-chlorophenyl)-3-((3S,4R)-4-hydroxytetrahydrofuran-3-yl)-8-(pyridin-3-yl)pyrido[3,4-d]pyrimidin-4(3H)-one]",< 100 nM,≥ 1 µM,≥ 1 µM
"O=c1c2cc(-c3ccc(C(F)(F)F)nc3)nc(-c3cccnc3)c2ncn1[C@H]1COC[C@H]1O [Compound 126, 3-((3S,4S)-4-hydroxytetrahydrofuran-3-yl)-8-(pyridin-3-yl)-6-(6-(trifluoromethyl)pyridin-3-yl)pyrido[3,4-d]pyrimidin-4(3H)-one]",< 100 nM,≥ 1 µM,≥ 1 µM
"O=c1c2cc(-c3ccc(C(F)(F)F)cn3)nc(-c3cccnc3)c2ncn1[C@H]1COC[C@@H]1O [Compound 139, 3-((3S,4R)-4-hydroxytetrahydrofuran-3-yl)-8-(pyridin-3-yl)-6-(5-(trifluoromethyl)pyridin-2-yl)pyrido[3,4-d]pyrimidin-4(3H)-one]",< 100 nM,≥ 1 µM,≥ 1 µM
"O=c1c2cc(-c3ccc(C(F)(F)F)cn3)nc(-c3cccnc3)c2ncn1[C@@H]1COC[C@H]1O [Compound 140, 3-((3R,4S)-4-hydroxytetrahydrofuran-3-yl)-8-(pyridin-3-yl)-6-(5-(trifluoromethyl)pyridin-2-yl)pyrido[3,4-d]pyrimidin-4(3H)-one]",< 100 nM,≥ 1 µM,≥ 1 µM
"O=c1c2cc(-c3ccc(C(F)(F)F)cn3)nc(-c3cccnc3)c2ncn1[C@H]1COC[C@H]1O [Compound 145, 3-((3S,4S)-4-hydroxytetrahydrofuran-3-yl)-8-(pyridin-3-yl)-6-(5-(trifluoromethyl)pyridin-2-yl)pyrido[3,4-d]pyrimidin-4(3H)-one]",< 100 nM,≥ 1 µM,0.1 to 1 µM
"O=c1c2cc(-c3ccc(Cl)cc3)nc(-c3cccnc3)c2ncn1[C@@H]1COC[C@H]1O [Compound 152, 6-(4-chlorophenyl)-3-((3R,4S)-4-hydroxytetrahydrofuran-3-yl)-8-(pyridin-3-yl)pyrido[3,4-d]pyrimidin-4(3H)-one]",< 100 nM,≥ 1 µM,≥ 1 µM
"CNC(=O)[C@H](C)n1cnc2c(-c3cccnc3)nc(-c3ccc(C(F)(F)F)nc3)cc2c1=O [Compound 156, (S)—N-methyl-2-(4-oxo-8-(pyridin-3-yl)-6-(6-(trifluoromethyl)pyridin-3-yl)pyrido[3,4-d]pyrimidin-3(4H)-yl)propanamide]",< 100 nM,≥ 1 µM,≥ 1 µM
"CC(C)(O)Cn1cnc2c(-n3ccnc3)nc(-c3ccc(C(F)(F)F)cn3)cc2c1=O [Compound 160, 3-(2-hydroxy-2-methylpropyl)-8-(1H-imidazol-1-yl)-6-(5-(trifluoromethyl)pyridin-2-yl)pyrido[3,4-d]pyrimidin-4(3H)-one]",< 100 nM,≥ 1 µM,≥ 1 µM
"C[C@@H](CO)n1cnc2c(-n3ccnc3)nc(-c3ccc(C(F)(F)F)cn3)cc2c1=O [Compound 162, (S)-3-(1-hydroxypropan-2-yl)-8-(1H-imidazol-1-yl)-6-(5-(trifluoromethyl)pyridin-2-yl)pyrido[3,4-d]pyrimidin-4(3H)-one]",< 100 nM,≥ 1 µM,≥ 1 µM
"C[C@@H](CO)n1cnc2c(-n3ccnc3)nc(-c3ccc(C(F)(F)F)nc3)cc2c1=O [Compound 163, (S)-3-(1-hydroxypropan-2-yl)-8-(1H-imidazol-1-yl)-6-(6-(trifluoromethyl)pyridin-3-yl)pyrido[3,4-d]pyrimidin-4(3H)-one]",< 100 nM,≥ 1 µM,≥ 1 µM
"C[C@@H](CO)n1cnc2c(N3CCCCC3)nc(-c3ccc(Cl)cc3)cc2c1=O [Compound 177, (S)-6-(4-chlorophenyl)-3-(1-hydroxypropan-2-yl)-8-(piperidin-1-yl)pyrido[3,4-d]pyrimidin-4(3H)-one]",< 100 nM,≥ 1 µM,0.1 to 1 µM
"Cc1nc(-c2cc3c(=O)n([C@@H](C)CO)cnc3c(-c3cccnc3)n2)cs1 [Compound 183, (S)-3-(1-hydroxypropan-2-yl)-6-(2-methylthiazol-4-yl)-8-(pyridin-3-yl)pyrido[3,4-d]pyrimidin-4(3H)-one]",> 500 nM,≥ 1 µM,≥ 1 µM

# The next lines start with the values.
IC50 (AHR),"solubility at 2 h [1, 2]","solubility at 2 h [1, 3]",SMILES
< 100 nM,≥ 1 µM,≥ 1 µM,"O=c1c2cc(-c3ccc(C(F)(F)F)nc3)nc(-c3cccnc3)c2ncn1C[C@@H](O)C(F)(F)F [Compound 122, (R)-8-(pyridin-3-yl)-3-(3,3,3-trifluoro-2-hydroxypropyl)-6-(6-(trifluoromethyl)pyridin-3-yl)pyrido[3,4-d]pyrimidin-4(3H)-one]"
< 100 nM,≥ 1 µM,0.1 to 1 µM,"Cn1cc(-c2nc(-c3ccc(C4CC4)nc3)cc3c(=O)n(C[C@H](O)C(F)(F)F)cnc23)cn1 [Compound 136, (S)-6-(6-cyclopropylpyridin-3-yl)-8-(1-methyl-1H-pyrazol-4-yl)-3-(3,3,3-trifluoro-2-hydroxypropyl)pyrido[3,4-d]pyrimidin-4(3H)-one]"
< 100 nM,0.1 to 1 µM,0.1 to 1 µM,"C[C@H](O)Cn1cnc2c(-c3cnn(C)c3)nc(-c3ccc(C(F)(F)F)cn3)cc2c1=O [Compound 142, (S)-3-(2-hydroxypropyl)-8-(1-methyl-1H-pyrazol-4-yl)-6-(5-(trifluoromethyl)pyridin-2-yl)pyrido[3,4-d]pyrimidin-4(3H)-one]"
< 100 nM,≥ 1 µM,≥ 1 µM,"C[C@H](O)Cn1cnc2c(-c3cccnc3)nc(-c3ccc(C(F)(F)F)cn3)cc2c1=O [Compound 143, (S)-3-(2-hydroxypropyl)-8-(pyridin-3-yl)-6-(5-(trifluoromethyl)pyridin-2-yl)pyrido[3,4-d]pyrimidin-4(3H)-one]"
< 100 nM,≥ 1 µM,≥ 1 µM,"C[C@@H](O)Cn1cnc2c(-c3cccnc3)nc(-c3ccc(C(F)(F)F)cn3)cc2c1=O [Compound 144, (R)-3-(2-hydroxypropyl)-8-(pyridin-3-yl)-6-(5-(trifluoromethyl)pyridin-2-yl)pyrido[3,4-d]pyrimidin-4(3H)-one]"
< 100 nM,0.1 to 1 µM,0.1 to 1 µM,"Cn1cc(-c2nc(-c3ccc(C(F)(F)F)cn3)cc3c(=O)n([C@H]4COC[C@H]4O)cnc23)cn1 [Compound 151, 3-((3S,4S)-4-hydroxytetrahydrofuran-3-yl)-8-(1-methyl-1H-pyrazol-4-yl)-6-(5-(trifluoromethyl)pyridin-2-yl)pyrido[3,4-d]pyrimidin-4(3H)-one]"
< 100 nM,≥ 1 µM,≥ 1 µM,"O=c1c2cc(-c3ccc(C(F)(F)F)cn3)nc(-c3cccnc3)c2ncn1C[C@@H](O)C(F)(F)F [Compound 154, (R)-8-(pyridin-3-yl)-3-(3,3,3-trifluoro-2-hydroxypropyl)-6-(5-(trifluoromethyl)pyridin-2-yl)pyrido[3,4-d]pyrimidin-4(3H)-one]"
